Results as given in ChEMBL document CHEMBL1201862, “PubChem BioAssay data set” (2004).
The source made the active and inactive calls.

Key:
[1] = molecular target: T1, Hexokinase-1 (Homo sapiens, UniProt P19367); test: hexokinase 1 activity inhibitors, potency – biochemical, set 2, resazurin fluorescence coupled readout, selectivity assay for HKDC1 inhibitor project, SAR follow-up (AID 588356); format: functional
[2] = molecular target: T2, Hexokinase HKDC1 (Homo sapiens, UniProt Q2TB90); test: analog inhibition of human HKDC1 activity – biochemical, set 2, SAR follow-up (AID 588355); format: functional
T2 sequence (Q2TB90 whole entry): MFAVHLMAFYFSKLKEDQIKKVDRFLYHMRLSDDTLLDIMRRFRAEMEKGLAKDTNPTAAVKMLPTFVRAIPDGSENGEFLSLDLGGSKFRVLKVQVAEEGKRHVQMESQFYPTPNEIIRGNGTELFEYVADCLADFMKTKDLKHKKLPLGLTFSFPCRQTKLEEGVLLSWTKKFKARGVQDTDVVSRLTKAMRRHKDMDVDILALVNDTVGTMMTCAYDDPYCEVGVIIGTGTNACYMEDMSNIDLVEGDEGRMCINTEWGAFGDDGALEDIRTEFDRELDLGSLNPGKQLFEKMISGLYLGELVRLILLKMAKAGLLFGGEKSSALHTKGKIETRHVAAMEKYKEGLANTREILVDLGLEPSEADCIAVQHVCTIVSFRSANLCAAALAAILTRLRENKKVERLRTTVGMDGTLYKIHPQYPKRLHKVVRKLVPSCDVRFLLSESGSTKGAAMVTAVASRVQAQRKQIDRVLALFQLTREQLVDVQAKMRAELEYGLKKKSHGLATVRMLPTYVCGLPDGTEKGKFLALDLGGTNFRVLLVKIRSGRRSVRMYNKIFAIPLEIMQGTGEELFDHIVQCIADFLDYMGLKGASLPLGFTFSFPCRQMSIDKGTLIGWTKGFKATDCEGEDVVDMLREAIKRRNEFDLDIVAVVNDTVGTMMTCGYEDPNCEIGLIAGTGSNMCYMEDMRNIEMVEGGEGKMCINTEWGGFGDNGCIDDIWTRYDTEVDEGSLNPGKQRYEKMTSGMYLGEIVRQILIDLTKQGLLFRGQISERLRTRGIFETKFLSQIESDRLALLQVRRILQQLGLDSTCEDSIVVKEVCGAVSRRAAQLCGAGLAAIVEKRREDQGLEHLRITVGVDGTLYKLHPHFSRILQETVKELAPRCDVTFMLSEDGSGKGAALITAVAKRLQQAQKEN

[3] = molecular target: T1, Hexokinase-1; test: SAR analysis of small molecule inhibitors of hexokinase domain containing I (HKDC1) in the hexokinase 1 selectivity assay. [Related pubchem assays (depositor defined):AID493160, AID493190]; format: functional
[4] = molecular target: T2, Hexokinase HKDC1; test: SAR analysis of small molecule inhibitors of hexokinase domain containing I (HKDC1). [Related pubchem assays (depositor defined):AID493160, AID493190]; format: functional
[5] = molecular target: T3, Phospholipase D1 (Homo sapiens, UniProt Q13393); test: cellular phospholipase D1 inhibition IC50 – cell-based, dose response (AID 602151); format: functional;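 further: cellular PLD1 assay in Calu-1 cells stimulated with PMA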
T3 sequence (Q13393 whole entry): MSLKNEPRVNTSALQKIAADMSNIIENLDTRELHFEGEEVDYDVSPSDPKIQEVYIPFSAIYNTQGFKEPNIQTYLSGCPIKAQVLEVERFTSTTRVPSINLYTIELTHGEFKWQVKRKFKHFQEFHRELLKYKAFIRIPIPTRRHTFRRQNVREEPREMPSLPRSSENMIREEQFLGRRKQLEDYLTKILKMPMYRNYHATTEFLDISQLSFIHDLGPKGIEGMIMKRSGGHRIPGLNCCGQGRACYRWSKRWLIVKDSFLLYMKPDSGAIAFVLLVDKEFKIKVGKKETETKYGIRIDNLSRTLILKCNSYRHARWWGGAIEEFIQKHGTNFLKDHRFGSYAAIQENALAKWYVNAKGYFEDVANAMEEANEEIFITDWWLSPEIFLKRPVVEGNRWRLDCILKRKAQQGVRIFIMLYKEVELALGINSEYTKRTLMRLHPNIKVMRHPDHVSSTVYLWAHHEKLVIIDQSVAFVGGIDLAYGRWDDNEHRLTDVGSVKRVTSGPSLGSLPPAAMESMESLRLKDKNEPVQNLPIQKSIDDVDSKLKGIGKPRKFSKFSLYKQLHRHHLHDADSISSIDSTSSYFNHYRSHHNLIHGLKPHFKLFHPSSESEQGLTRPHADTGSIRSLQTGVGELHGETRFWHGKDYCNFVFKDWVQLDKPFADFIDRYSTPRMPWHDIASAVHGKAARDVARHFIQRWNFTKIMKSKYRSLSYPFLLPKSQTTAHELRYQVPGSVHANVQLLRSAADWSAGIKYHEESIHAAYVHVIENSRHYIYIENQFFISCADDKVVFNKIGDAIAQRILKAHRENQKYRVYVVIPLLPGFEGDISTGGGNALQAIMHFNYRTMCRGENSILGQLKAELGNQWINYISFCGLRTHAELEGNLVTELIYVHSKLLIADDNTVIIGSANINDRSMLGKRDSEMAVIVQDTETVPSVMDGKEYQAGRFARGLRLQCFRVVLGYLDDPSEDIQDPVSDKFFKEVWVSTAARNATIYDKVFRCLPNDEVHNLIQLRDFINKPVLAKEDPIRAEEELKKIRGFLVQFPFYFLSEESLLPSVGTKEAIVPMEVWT

[6] = molecular target: T4, Phospholipase D2 (Homo sapiens, UniProt O14939); test: cellular phospholipase D2 inhibition IC50 – cell-based, dose response (AID 602147); format: functional;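 further: cellular assay in HEK293 cells overexpressing GFP-tagged PLD2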
T4 sequence (O14939 whole entry): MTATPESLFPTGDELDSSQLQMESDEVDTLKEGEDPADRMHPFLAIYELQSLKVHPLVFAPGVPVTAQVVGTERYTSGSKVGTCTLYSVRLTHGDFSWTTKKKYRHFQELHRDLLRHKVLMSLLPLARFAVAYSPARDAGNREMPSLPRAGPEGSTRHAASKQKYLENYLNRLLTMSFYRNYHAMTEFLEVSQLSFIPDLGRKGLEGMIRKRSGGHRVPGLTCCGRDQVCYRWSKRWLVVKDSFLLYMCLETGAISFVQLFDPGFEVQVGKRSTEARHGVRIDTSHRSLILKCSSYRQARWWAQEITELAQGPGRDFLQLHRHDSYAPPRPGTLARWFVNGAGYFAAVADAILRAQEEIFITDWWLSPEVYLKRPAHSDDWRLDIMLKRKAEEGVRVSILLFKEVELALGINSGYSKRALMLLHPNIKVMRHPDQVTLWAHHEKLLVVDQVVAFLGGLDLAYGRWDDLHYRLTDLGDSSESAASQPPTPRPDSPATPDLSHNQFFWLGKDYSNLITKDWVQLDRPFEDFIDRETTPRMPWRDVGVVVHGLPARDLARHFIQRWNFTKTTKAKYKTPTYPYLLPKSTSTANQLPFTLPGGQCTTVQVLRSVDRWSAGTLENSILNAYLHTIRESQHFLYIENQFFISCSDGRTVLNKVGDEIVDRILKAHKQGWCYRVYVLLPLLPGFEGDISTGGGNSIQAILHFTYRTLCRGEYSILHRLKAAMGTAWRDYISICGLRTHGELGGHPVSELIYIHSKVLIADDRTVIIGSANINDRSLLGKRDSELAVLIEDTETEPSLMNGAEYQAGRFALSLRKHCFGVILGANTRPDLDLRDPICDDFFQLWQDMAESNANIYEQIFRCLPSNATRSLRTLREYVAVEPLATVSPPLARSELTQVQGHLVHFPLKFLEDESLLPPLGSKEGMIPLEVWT

[7] = molecular target: T3, Phospholipase D1; test: PLD1 purified enzyme concentration response. [Related pubchem assays (depositor defined):AID588854]; format: functional
[8] = molecular target: T4, Phospholipase D2; test: PLD2 purified enzyme concentration response. [Related pubchem assays (depositor defined):AID588854]; format: functional
[9] = molecular target: Mu-type opioid receptor (Homo sapiens, UniProt P35372); format: functional, cell-based;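 further: U2OS cells with beta-arrestin recruitment to OPRM1 by beta-gal complementation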
Sequence of Mu-type opioid receptor (P35372 whole entry): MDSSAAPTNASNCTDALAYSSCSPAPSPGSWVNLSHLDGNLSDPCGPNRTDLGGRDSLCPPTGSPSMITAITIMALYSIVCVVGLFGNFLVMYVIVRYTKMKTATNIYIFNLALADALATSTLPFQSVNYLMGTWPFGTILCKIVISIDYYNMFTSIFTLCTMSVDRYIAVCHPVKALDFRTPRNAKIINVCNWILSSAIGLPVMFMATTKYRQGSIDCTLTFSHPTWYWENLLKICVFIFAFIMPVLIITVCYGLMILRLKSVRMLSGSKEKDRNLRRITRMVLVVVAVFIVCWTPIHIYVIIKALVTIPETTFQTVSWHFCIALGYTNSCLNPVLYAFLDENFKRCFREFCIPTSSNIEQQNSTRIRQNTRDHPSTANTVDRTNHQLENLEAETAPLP

[10] = molecular target: 5-hydroxytryptamine receptor 2A (Mus musculus, UniProt P35363); format: functional, cell-based;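 further: CHO-K1 cells with tagged receptor and beta-arrestin; agonist potency measured as compound-induced activation of the receptor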
Sequence of 5-hydroxytryptamine receptor 2A (P35363 whole entry): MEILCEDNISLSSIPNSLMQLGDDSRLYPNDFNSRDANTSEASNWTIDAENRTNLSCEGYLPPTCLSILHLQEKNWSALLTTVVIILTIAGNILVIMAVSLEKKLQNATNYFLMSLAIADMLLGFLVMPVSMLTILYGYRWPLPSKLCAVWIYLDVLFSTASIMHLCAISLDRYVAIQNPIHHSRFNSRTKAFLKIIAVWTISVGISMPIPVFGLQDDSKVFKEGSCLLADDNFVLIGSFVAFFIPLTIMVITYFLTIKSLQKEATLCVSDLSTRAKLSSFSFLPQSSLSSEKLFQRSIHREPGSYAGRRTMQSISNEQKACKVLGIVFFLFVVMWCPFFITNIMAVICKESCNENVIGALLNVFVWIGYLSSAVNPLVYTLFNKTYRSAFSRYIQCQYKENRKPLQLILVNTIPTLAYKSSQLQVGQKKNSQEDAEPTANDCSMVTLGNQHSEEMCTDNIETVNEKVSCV

[11] = molecular target: Voltage-gated inwardly rectifying potassium channel KCNH2 (Homo sapiens, UniProt Q12809); settings: Potency;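 further: confirmatory quantitative high-throughput screen measuring inhibition of hERG channel activity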
Sequence of Voltage-gated inwardly rectifying potassium channel KCNH2 (Q12809 whole entry): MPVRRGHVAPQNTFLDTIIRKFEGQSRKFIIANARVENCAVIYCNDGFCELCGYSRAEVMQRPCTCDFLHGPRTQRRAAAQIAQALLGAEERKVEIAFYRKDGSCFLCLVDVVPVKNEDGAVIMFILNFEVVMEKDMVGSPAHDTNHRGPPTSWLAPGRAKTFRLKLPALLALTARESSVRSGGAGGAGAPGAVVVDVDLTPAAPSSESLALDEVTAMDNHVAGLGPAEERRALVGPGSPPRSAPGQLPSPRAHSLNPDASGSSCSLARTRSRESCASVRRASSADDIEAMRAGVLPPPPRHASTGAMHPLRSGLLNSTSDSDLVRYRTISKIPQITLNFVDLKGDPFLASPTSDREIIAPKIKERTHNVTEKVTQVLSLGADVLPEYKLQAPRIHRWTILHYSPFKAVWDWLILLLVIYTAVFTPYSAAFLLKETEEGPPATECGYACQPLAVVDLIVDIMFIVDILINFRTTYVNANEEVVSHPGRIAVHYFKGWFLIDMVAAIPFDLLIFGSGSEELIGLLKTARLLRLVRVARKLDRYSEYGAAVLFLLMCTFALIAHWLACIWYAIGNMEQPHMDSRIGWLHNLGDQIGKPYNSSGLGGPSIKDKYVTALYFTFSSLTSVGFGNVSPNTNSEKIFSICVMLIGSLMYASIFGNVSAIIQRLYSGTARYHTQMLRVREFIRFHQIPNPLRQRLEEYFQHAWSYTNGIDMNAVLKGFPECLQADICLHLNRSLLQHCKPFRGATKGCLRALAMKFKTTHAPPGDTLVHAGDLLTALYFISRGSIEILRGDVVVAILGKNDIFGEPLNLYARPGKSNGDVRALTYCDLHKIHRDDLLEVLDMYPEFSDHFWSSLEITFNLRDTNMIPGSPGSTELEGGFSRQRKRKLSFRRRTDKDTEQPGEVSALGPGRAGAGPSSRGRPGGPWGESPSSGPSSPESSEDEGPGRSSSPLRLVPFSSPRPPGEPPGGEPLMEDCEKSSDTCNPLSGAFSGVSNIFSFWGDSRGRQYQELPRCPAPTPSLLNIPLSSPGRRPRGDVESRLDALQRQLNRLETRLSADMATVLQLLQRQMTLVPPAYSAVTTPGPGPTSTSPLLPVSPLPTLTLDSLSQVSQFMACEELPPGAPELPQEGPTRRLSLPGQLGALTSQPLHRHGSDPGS

T1 sequence (P19367 whole entry): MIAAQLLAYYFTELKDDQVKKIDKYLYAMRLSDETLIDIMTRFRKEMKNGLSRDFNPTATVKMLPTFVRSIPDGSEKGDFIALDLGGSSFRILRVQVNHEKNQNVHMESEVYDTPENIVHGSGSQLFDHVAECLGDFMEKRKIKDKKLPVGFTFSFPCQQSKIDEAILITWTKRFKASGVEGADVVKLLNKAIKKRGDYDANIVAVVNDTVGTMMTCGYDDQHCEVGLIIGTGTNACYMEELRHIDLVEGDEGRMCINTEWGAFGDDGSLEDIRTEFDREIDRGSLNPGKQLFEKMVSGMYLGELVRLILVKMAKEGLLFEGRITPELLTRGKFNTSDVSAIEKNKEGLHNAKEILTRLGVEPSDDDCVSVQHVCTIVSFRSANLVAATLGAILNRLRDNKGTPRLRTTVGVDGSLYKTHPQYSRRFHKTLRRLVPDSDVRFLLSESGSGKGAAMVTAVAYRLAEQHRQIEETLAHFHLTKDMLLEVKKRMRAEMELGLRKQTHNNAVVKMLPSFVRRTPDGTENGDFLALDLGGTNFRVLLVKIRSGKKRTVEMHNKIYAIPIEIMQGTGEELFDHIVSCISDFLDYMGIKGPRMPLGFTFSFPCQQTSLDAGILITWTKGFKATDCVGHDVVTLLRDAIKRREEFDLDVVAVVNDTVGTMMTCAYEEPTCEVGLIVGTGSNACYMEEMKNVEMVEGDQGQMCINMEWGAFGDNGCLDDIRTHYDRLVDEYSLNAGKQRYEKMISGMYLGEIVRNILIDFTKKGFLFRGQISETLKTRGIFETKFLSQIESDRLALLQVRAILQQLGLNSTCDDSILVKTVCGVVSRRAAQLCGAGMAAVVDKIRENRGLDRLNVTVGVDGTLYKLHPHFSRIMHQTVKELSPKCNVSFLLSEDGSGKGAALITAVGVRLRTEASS

CC(=O)NC1C(=O)N(Cc2ccccc2)c2ccc(Cl)cc21 (stereo unspecified)
IC50 [1]: > 80 µM (inactive) | IC50 [2]: > 80 µM (inactive)

O=C(Nc1cccc(C(F)(F)F)c1)c1cccc(NC(=O)c2cnccn2)c1
IC50 [3]: > 80 µM (inactive) | IC50 [4]: > 80 µM (inactive)

C[C@H](CN1CCC(n2c(=O)[nH]c3cc(Cl)ccc32)CC1)NC(=O)c1cc2ccccc2[nH]1
IC50 [5]: 0.002 µM (active) | IC50 [6]: 0.26 µM (active) | IC50 [7]: 0.009 µM (active) | IC50 [8]: 0.12 µM (active)

C=CCN1CCc2cc(O)c(O)cc2C(c2ccccc2)C1 (stereo unspecified)
EC50 [9]: 92.5 µM (inactive) | EC50 [10]: 2.32 µM (active) | AC50 [11]: 15.8 µM (inconclusive)
